Measured values: a melting point compilation (Tetko et al.; mined from patent text by program, amines drawn as free bases though some values may be those of a salt)

SMILES | melting point [°C]
COC(=O)CCc1oc(-c2ccc3c(c2)OCO3)nc1-c1ccc(Cl)cc1 | 123 to 124
O=C(NCCN1CCOCC1)c1ccc(-c2ccc3nnn(Cc4ccc5ncccc5c4)c3n2)cc1 | 146 to 149
CC12CC(F)C3C4CCC(=O)C=C4CC(CCCCCBr)C3C1CCC2=O (stereo not given) | 75 to 76
CCCCn1c(=O)c2cc(OC)c(OC)cc2c2nnc3cc4c(cc3c21)OCO4 | 299
CC(C)Oc1nc(N)nc2[nH]cnc12 | 204 to 206
CC(Cc1c[nH]c2ccccc12)(NC(=O)OC1C2CC3CC(C2)CC1C3)C(=O)NCC(NC(=O)CSc1ncc[nH]1)c1ccccc1 (stereo not given) | 112 to 122
Nc1cccc(C#CCCN2CCC(O)(c3ccc(Cl)cc3)CC2)c1 | 139 to 140
CC1(C)c2cc(C#N)ccc2OC1N=C=S (stereo not given) | 52
Cc1cc(-n2ccnc2)c2cccc(OCc3c(Cl)ccc(S(=O)(=O)N4CCC[C@H]4C(=O)N(C)CCN(C)C)c3Cl)c2n1 | 98
CCOC(=O)c1ncn2c1CN=C(c1ccccc1Cl)c1cc([N+](=O)[O-])ccc1-2 | 250 to 252
Cc1ccccc1NS(=O)(=O)c1cc(S(=O)(=O)Nc2ccccc2C)c2ccccc2c1O | 220 to 222
CC(CN1CCCC1)N1c2ccccc2Sc2ccc(C(=O)NCc3cccc(Cl)c3)cc21 (racemic) | 80
O=c1c2ccc(Cl)cc2[nH]c2c(O)nn(-c3ccc(OC(F)(F)F)cc3)c(=O)c12 | 320 to 322
COc1ccc(-c2[nH]nc3c2C(=O)c2c(NC(=O)CN4CCSCC4)cccc2-3)cc1 | 298
CCOP(=O)(/C=C/c1ccc2cc(NC(=O)c3cccnc3)cc(-c3cccc4ccccc34)c2n1)OCC | 216 to 217
O=C(O)c1ccc(S(=O)(=O)Oc2ccc(-c3ccc(-c4c(C(=O)c5ccccc5)oc5ccccc45)cc3)cc2[N+](=O)[O-])cc1O | 105 to 107
O=C1C(=Cc2ccsc2)CCc2cc(OCCc3c[nH]cn3)ccc21 | 94 to 96
COc1ccc(S(=O)(=O)Nc2ccc(Cl)cc2/C=C/c2ccncc2)cc1 | 175 to 176
CC(C#N)c1nc(O)n[nH]1 (stereo not given) | 182 to 184
COc1ccc2nc(-n3nc(CCCO)cc3-c3ccc(Cl)cc3)sc2c1 | 123 to 125
C[Si](C)(C)OC1(C#N)CCC(C(=O)NCc2cccc3ccccc23)c2ccccc21 (stereo not given) | 55 to 56

Other lines, results leading:

melting point [°C] | SMILES
166 to 168 | Cc1cn(C)cc1C(=O)O
91 to 92.5 | CC(=O)N1CCCSC1=C[N+](=O)[O-]
211 to 213 | CNC(=O)Nc1ccc(S(N)(=O)=O)cc1
190 to 192 | CC(=O)Nc1ccc(C#N)c(F)c1
122 to 123 | COP(=O)(CN[C@@H](Cc1ccc(-c2ccccc2)cc1)C(=O)NCCC(=O)O)OC
76 to 77 | CN(C)C(=S)SC(C[N+](=O)[O-])c1ccc(Cl)s1 (stereo not given)
142 to 144 | COc1ccc(C(=O)CCC(=O)O)c(Cl)c1Cl
188 to 190 | O=C(O)COc1cc(Cl)ccc1C(=O)NCc1c(F)cccc1F
170 | CCCCN1C(=O)NC(=Cc2cc(OC)c(OC)cc2OC)C1=O
151 to 153 | COc1cccc2sc(C(N)=O)c(N)c12
188 to 190 | Cc1[nH]cnc1/C=C/C(=O)c1cc2ccccc2s1
66 | CC(C)(SC(F)(F)F)C(=O)C(Oc1ccc(Cl)cc1)n1cncn1 (stereo not given)
159 to 161 | COC1C(OC(=O)c2ccc(N)cc2)C=C(C)C(=O)CC1(C)C (stereo not given)
160 | CC(C)(C)c1cc(C(=O)N2CCN(c3ccc([N+](=O)[O-])cc3)CC2)cc(C(C)(C)C)c1O
161 to 163 | Cc1ccccc1OS(=O)(=O)c1ccc(N2CCCNC2=O)cc1
165 | Cc1ccc(S(=O)(=O)N2Cc3sccc3-n3cccc3C2)cc1
144 to 146 | CCOCCn1cc(C2CCN(CCOc3ccc(C)cc3C(=O)O)CC2)c2cc(OC)ccc21
94 to 98 | C=CCNC(=O)[C@H]1N(C(=O)OC(C)(C)C)CSC1(C)C
133 | N#Cc1ccc(NC(=NS(=O)(=O)c2ccccc2)NCC(=O)O)cc1
131 | CCOc1cc2c(cc1OC(C)=O)OCS2
152 to 153 | COC(=O)c1ccc(CN2CCOc3ccc(NC(=O)CC4CCCC4)cc32)c(OC)c1
226 to 230 | O=c1cc(-c2ccccc2)cc[nH]1
206 | O=C1c2ccccc2C(=O)N1CC(=O)N(CC(=O)n1ccnc1)c1ccccc1
88 to 90.5 | C=C(Cl)CSC(=S)Nc1ccc(Cl)cc1C
90 to 91 | NNC(=O)c1cc2cc(Cl)ccc2s1
190 to 201 | CCCC(=O)Nc1ccc(N2CCC(NC[C@H](O)COc3cccc4[nH]c(=O)[nH]c34)CC2)cc1
261 to 263 | CCC(C)(C)Nc1c(NCc2ccc(C)c(Cl)c2)c(=O)c1=O
154 | CCCCCCOC(C)c1ccc(-c2ccc(C(=O)O)cc2)cc1 (single isomer, unassigned; (+))
145 | CC(C)(C)OC(=O)Nc1cc(OCc2ccccc2)c2ccc(C#N)cc2c1
